In patent US9730940B2, “Purine inhibitors of human phosphatidylinositol 3-kinase delta” (priority 2012, dated 2017):

Each compound was assayed against PI3K-alpha (Homo sapiens (Human), UniProt P42336) (assay: HTRF PI3K biochemical assay, alpha isoform). Conditions: ratio PI3K-alpha IC50 value/PI3K-delta IC50 value.
Sequence of PI3K-alpha (P42336 whole entry, looked up, canonical isoform): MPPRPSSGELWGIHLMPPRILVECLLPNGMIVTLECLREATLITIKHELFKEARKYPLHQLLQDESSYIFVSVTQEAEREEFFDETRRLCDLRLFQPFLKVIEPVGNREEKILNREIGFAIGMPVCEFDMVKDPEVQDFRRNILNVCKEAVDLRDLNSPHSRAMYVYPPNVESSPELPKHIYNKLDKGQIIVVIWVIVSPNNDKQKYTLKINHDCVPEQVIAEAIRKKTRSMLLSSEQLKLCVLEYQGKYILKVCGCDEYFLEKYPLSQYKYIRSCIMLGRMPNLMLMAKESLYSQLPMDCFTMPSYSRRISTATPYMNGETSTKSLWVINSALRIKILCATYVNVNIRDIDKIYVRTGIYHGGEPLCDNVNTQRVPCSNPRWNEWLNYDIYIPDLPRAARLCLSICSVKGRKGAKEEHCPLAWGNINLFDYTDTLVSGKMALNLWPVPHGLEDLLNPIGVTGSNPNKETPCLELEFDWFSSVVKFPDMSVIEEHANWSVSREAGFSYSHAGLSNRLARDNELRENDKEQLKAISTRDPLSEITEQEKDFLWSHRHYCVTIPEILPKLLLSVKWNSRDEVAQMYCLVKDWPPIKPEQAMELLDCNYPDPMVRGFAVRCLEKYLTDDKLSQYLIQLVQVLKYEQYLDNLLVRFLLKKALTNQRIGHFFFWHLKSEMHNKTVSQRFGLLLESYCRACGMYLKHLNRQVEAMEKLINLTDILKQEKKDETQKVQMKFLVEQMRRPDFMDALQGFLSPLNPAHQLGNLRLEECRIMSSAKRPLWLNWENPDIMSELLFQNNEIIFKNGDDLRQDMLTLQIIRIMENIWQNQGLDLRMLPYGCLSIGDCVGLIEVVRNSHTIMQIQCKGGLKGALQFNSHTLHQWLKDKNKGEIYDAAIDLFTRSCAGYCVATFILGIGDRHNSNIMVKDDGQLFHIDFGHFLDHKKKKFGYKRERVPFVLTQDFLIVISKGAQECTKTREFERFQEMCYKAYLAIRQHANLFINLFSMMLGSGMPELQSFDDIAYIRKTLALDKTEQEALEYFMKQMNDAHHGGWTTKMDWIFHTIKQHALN
Sequence of PI3K-alpha (P27986 whole entry partner, looked up, canonical isoform): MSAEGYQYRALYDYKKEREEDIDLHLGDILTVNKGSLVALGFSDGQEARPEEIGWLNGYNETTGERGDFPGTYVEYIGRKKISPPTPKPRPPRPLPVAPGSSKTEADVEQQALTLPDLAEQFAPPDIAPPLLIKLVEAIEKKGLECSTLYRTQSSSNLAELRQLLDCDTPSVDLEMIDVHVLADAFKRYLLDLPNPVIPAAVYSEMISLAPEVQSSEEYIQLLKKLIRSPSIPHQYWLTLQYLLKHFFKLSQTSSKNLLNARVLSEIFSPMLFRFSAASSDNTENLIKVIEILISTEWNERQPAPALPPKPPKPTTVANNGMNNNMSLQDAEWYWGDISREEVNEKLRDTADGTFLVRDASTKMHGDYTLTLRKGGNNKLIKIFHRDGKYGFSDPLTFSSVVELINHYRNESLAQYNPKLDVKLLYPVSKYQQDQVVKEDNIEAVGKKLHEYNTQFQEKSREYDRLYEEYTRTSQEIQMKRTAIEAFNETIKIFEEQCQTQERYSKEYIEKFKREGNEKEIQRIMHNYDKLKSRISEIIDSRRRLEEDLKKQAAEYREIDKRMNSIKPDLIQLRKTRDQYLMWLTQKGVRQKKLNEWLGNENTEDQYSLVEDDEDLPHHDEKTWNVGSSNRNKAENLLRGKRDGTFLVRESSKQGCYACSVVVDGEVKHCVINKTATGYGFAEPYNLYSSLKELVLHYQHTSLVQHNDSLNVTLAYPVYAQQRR

Row | SMILES | Relative Selectivity versus PI3Kalpha
1 | CCn1c(-c2cnc(OC)c(F)c2)nc2c(O[C@H]3CCN(C(=O)C4CCOCC4)C3)ncnc21 [Compound 3-56, 9-ethyl-8-(5-fluoro-6-methoxypyridin-3-yl)-6-{[(3S)-1-(tetrahydro-2H-pyran-4-ylcarbonyl)pyrrolidin-3-yl]oxy}-9H-purine] | >10
2 | CCn1c(-c2cnc(OC)c(F)c2)nc2c(O[C@H]3CCN(C(=O)c4ccn(C)n4)C3)ncnc21 [Compound 3-57, 9-ethyl-8-(5-fluoro-6-methoxypyridin-3-yl)-6-({(3S)-1-[(1-methyl-1H-pyrazol-3-yl)carbonyl]pyrrolidin-3-yl}oxy)-9H-purine] | >10
3 | CCn1c(-c2cnc(OC)c(F)c2)nc2c(O[C@H]3CCN(C(=O)c4cncn4C)C3)ncnc21 [Compound 3-58, 9-ethyl-8-(5-fluoro-6-methoxypyridin-3-yl)-6-({(3S)-1-[(1-methyl-1H-imidazol-5-yl)carbonyl]pyrrolidin-3-yl}oxy)-9H-purine] | >10
4 | CCn1c(-c2cnn3c2CCCC3)nc2c(O[C@H]3CCN(C(=O)C4CC4)C3)ncnc21 [Compound 3-59, 6-{[(3S)-1-(cyclopropylcarbonyl)pyrrolidin-3-yl]oxy}-9-ethyl-8-(4,5,6,7-tetrahydropyrazolo[1,5-a]pyridin-3-yl)-9H-purine] | >10
5 | CCn1c(-c2cnn3c2CCCC3)nc2c(O[C@H]3CCN(C(=O)C(C)C)C3)ncnc21 [Compound 3-60, 9-ethyl-6-{[(3S)-1-(2-methylpropanoyl)pyrrolidin-3-yl]oxy}-8-(4,5,6,7-tetrahydropyrazolo[1,5-a]pyridin-3-yl)-9H-purine] | >10
6 | CCn1ncc(-c2nc3c(O[C@H]4CCN(C(=O)C5CCOCC5)C4)ncnc3n2CC)c1C [Compound 3-61, (S)-(3-((9-ethyl-8-(1-ethyl-5-methyl-1H-pyrazol-4-yl)-9H-purin-6-yl)oxy)pyrrolidin-1-yl)(tetrahydro-2H-pyran-4-yl)methanone] | >10
7 | CCn1c(-c2cnc(C)nc2)nc2c(OC3CN(C(=O)C4CC4)CC34CC4)ncnc21 (stereo not drawn) [Compound 3-63, (R— or S—)-6-{[5-(cyclopropylcarbonyl)-5-azaspiro[2.4]hept-7-yl]oxy}-9-ethyl-8-(2-methylpyrimidin-5-yl)-9H-purine] | >10
8 | CCn1c(-c2cnc(C)nc2)nc2c(OC3CN(C(=O)C4CC4)CC34CC4)ncnc21 (stereo not drawn) [Compound 3-64, (R— or S—)-6-{[5-(cyclopropylcarbonyl)-5-azaspiro[2.4]hept-7-yl]oxy}-9-ethyl-8-(2-methylpyrimidin-5-yl)-9H-purine] | >10
9 | CCn1c(-c2cnc(C)nc2)nc2c(O[C@H]3CCN(S(=O)(=O)CC)C3)ncnc21 [Compound 4-8, (S)-9-ethyl-6-((1-(ethylsulfonyl)pyrrolidin-3-yl)oxy)-8-(2-methylpyrimidin-5-yl)-9H-purine] | >10
10 | CCn1ncc(-c2nc3c(O[C@H]4CCN(C(=O)NC(C)C)C4)ncnc3n2C)c1C [Compound 5-3, (3S)-3-{[8-(1-ethyl-5-methyl-1H-pyrazol-4-yl)-9-methyl-9H-purin-6-yl]oxy}-N-(1-methylethyl)pyrrolidine-1-carboxamide] | >10
11 | CCn1ncc(-c2nc3c(O[C@H]4CCN(C(=O)NC(C)(C)CC(C)(C)C)C4)ncnc3n2C)c1C [Compound 5-4, (3S)-3-{[8-(1-ethyl-5-methyl-1H-pyrazol-4-yl)-9-methyl-9H-purin-6-yl]oxy}-N-(1,1,3,3-tetramethylbutyl)pyrrolidine-1-carboxamide] | >10
12 | CCOC(=O)[C@H](C)NC(=O)N1CC[C@H](Oc2ncnc3c2nc(-c2cnn(CC)c2C)n3C)C1 [Compound 5-6, ethyl N-{[(3S)-3-{[8-(1-ethyl-5-methyl-1H-pyrazol-4-yl)-9-methyl-9H-purin-6-yl]oxy}pyrrolidin-1-yl]carbonyl}alaninate] | 5
